Source: ChEMBL document CHEMBL1201862, “PubChem BioAssay data set” (2004)
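48-hour exposure; five concentrations; linearly interpolated endpoints. GI50 is the concentration that inhibits growth by half.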 The source made the active and inactive calls. Rule as the data show it: active = GI50 up to about 1.1 µM and inactive = higher.

What was measured:
Assay in all cases: NCI-60 cell line screen, 48 h
CAKI-1 = test system: CAKI-1
HCT-15 = test system: HCT-15
MDA-N = test system: MDA-N
OVCAR-8 = test system: OVCAR-8
SW-620 = test system: SW-620
OVCAR-4 = test system: OVCAR-4
UACC-62 = test system: UACC-62
SK-MEL-5 = test system: SK-MEL-5
DU-145 = test system: DU-145
NCI/ADR-RES = test system: NCI/ADR-RES
M14 = test system: M14
MDA-MB-231 = test system: MDA-MB-231
NCI-H460 = test system: NCI-H460
SNB-19 = test system: SNB-19
RPMI-8226 = test system: RPMI-8226
BT-549 = test system: BT-549
NCI-H23 = test system: NCI-H23
SN12C = test system: SN12C
786-0 = test system: 786-0
TK-10 = test system: TK-10
EKVX = test system: EKVX
PC-3 = test system: PC-3
HL-60 = test system: HL-60
K562 = test system: K562
HT-29 = test system: HT-29
UO-31 = test system: UO-31
HOP-92 = test system: HOP-92
SK-MEL-28 = test system: SK-MEL-28
LOX IMVI = test system: LOX IMVI
MDA-MB-435 = test system: MDA-MB-435
NCI-H522 = test system: NCI-H522
T47D = test system: T47D
KM12 = test system: KM12
SF-295 = test system: SF-295
SF-268 = test system: SF-268
RXF 393 = test system: RXF 393
Malme-3M = test system: Malme-3M
SK-MEL-2 = test system: SK-MEL-2
A498 = test system: A498
Hs-578T = test system: Hs-578T
HOP-62 = test system: HOP-62
U-251 = test system: U-251
MOLT-4 = test system: MOLT-4
IGROV-1 = test system: IGROV-1
HCT-116 = test system: HCT-116
OVCAR-3 = test system: OVCAR-3
NCI-H226 = test system: NCI-H226
A549 = test system: A549
OVCAR-5 = test system: OVCAR-5
CCRF-CEM = test system: CCRF-CEM
UACC-257 = test system: UACC-257
ACHN = test system: ACHN
SR = test system: SR

Which GI50 (CAKI-1) does the source give for `Cc1cnc2cc(Cl)ccc2c1SCC(=O)O` here?
The GI50 was > 100 µM (inactive).

And the GI50 (HCT-15)?
The GI50 was > 100 µM.

What about the GI50 (MDA-N) of the same molecule?
Its GI50 is > 100 µM (inactive).

And the GI50 (OVCAR-8)?
Its GI50 is > 100 µM (inactive).

What about the GI50 (SW-620) of the same molecule?
Its GI50 is > 100 µM (inactive).

And the GI50 (OVCAR-4)?
Its GI50 is > 100 µM (inactive).

And the GI50 (UACC-62)?
The GI50 was > 100 µM (inactive).

And the GI50 (SK-MEL-5)?
The GI50 was > 100 µM (inactive).

What about the GI50 (DU-145) of the same molecule?
The GI50 was > 100 µM (inactive).

And the GI50 (NCI/ADR-RES)?
The GI50 was > 100 µM (inactive).

And the GI50 (M14)?
The GI50 was > 100 µM (inactive).

What about the GI50 (MDA-MB-231) of the same molecule?
The GI50 was > 100 µM (inactive).

What about the GI50 (NCI-H460) of the same molecule?
Its GI50 is > 100 µM (inactive).

What about the GI50 (SNB-19) of the same molecule?
Its GI50 is > 100 µM (inactive).

What about the GI50 (RPMI-8226) of the same molecule?
The GI50 was > 100 µM (inactive).

And the GI50 (BT-549)?
Its GI50 is > 100 µM (inactive).

What about the GI50 (NCI-H23) of the same molecule?
The GI50 was > 100 µM (inactive).

What about the GI50 (SN12C) of the same molecule?
The GI50 was > 100 µM (inactive).

What about the GI50 (786-0) of the same molecule?
Its GI50 is > 100 µM (inactive).

And the GI50 (TK-10)?
Its GI50 is > 100 µM (inactive).

What about the GI50 (EKVX) of the same molecule?
Its GI50 is > 100 µM (inactive).

What about the GI50 (PC-3) of the same molecule?
Its GI50 is > 100 µM (inactive).

And the GI50 (HL-60)?
Its GI50 is > 100 µM (inactive).

And the GI50 (K562)?
Its GI50 is > 100 µM (inactive).

What about the GI50 (HT-29) of the same molecule?
Its GI50 is > 100 µM (inactive).

What about the GI50 (UO-31) of the same molecule?
The GI50 was > 100 µM (inactive).

And the GI50 (HOP-92)?
The GI50 was > 100 µM (inactive).

What about the GI50 (SK-MEL-28) of the same molecule?
Its GI50 is > 100 µM (inactive).

And the GI50 (LOX IMVI)?
The GI50 was > 100 µM (inactive).

What about the GI50 (MDA-MB-435) of the same molecule?
Its GI50 is > 100 µM (inactive).

And the GI50 (NCI-H522)?
Its GI50 is > 100 µM (inactive).

What about the GI50 (T47D) of the same molecule?
The GI50 was > 100 µM (inactive).

What about the GI50 (KM12) of the same molecule?
Its GI50 is > 100 µM (inactive).

And the GI50 (SF-295)?
Its GI50 is > 100 µM (inactive).

And the GI50 (SF-268)?
Its GI50 is > 100 µM (inactive).

And the GI50 (RXF 393)?
The GI50 was > 100 µM (inactive).

And the GI50 (Malme-3M)?
Its GI50 is > 100 µM (inactive).

What about the GI50 (SK-MEL-2) of the same molecule?
Its GI50 is > 100 µM (inactive).

And the GI50 (A498)?
Its GI50 is > 100 µM (inactive).

And the GI50 (Hs-578T)?
The GI50 was 93.5 µM (inactive).

And the GI50 (HOP-62)?
Its GI50 is > 100 µM (inactive).

And the GI50 (U-251)?
The GI50 was > 100 µM (inactive).

What about the GI50 (MOLT-4) of the same molecule?
The GI50 was > 100 µM (inactive).

What about the GI50 (IGROV-1) of the same molecule?
Its GI50 is > 100 µM (inactive).

What about the GI50 (HCT-116) of the same molecule?
Its GI50 is > 100 µM (inactive).

What about the GI50 (OVCAR-3) of the same molecule?
The GI50 was > 100 µM (inactive).

What about the GI50 (NCI-H226) of the same molecule?
Its GI50 is > 100 µM (inactive).

And the GI50 (A549)?
Its GI50 is > 100 µM (inactive).

What about the GI50 (OVCAR-5) of the same molecule?
Its GI50 is > 100 µM (inactive).

And the GI50 (CCRF-CEM)?
Its GI50 is > 100 µM (inactive).

And the GI50 (UACC-257)?
The GI50 was > 100 µM (inactive).

And the GI50 (ACHN)?
The GI50 was > 100 µM (inactive).

And the GI50 (SR)?
Its GI50 is > 100 µM (inactive).
